≈ marks a conversion by molar mass, not a printed value. Entries after “also recorded” stand apart in the source; their conditions may differ.
Experiments:
Gram-positive bacteria = experiment: Broth microdilution, summary over reference Gram-positive bacteria; type: cell-based; conditions: for share of reference Gram-positive strains with moderate activity: moderate activity: MIC 126–500 µg/mL; for share of reference Gram-positive strains with moderate activity / share of reference Gram-positive strains with no activity / share of reference Gram-positive strains with mild activity / share of reference Gram-positive strains with good activity: 8 strains; for share of reference Gram-positive strains with no activity: no activity: MIC > 1000 µg/mL; for share of reference Gram-positive strains with mild activity: mild activity: MIC 501–1000 µg/mL; for share of reference Gram-positive strains with good activity: good activity: MIC 26–125 µg/mL
Description: (§1) Reference strains of microorganisms that came from American Type Culture Collection (ATCC) (Manassas, VA, USA) were used for this study. The representative Gram-positive bacteria were as follows: Staphylococcus aureus ATCC 25923, Staphylococcus aureus ATCC 29213, Staphylococcus aureus ATCC 43300, Staphylococcus epidermidis ATCC 12228, Enterococcus faecalis ATCC 29212, Micrococcus luteus ATCC 10240, Bacillus subtilis ATCC 6633 and Bacillus cereus ATCC 10876. While, those of Gram-negative bacteria were as follows: Bordetella bronchiseptica ATCC 4617, Escherichia coli ATCC 25922, Klebsiella pneumoniae ATCC 13883, Proteus mirabilis ATCC 12453, Salmonella Typhimurium ATCC 14028 and Pseudomonas aeruginosa ATCC 9027. Moreover, the following fungi belonging to yeasts were used: Candida albicans ATCC 10231, Candida albicans ATCC 2091, Candida parapsilosis ATCC 22019, Candida glabrata ATCC 90030 and Candida krusei ATCC 14243.
(§2) The new compounds WZ1–WZ4 were assayed for both antibacterial and antifungal activity using the broth microdilution method in accordance with the European Committee on Antimicrobial Susceptibility Testing (EUCAST) and Clinical and Laboratory Standards Institute (CLSI) guidelines. The microorganisms were grown at 35 °C for 18–24 h on appropriate media (nutrient agar and Sabouraud for bacteria and fungi, respectively) (BioMaxima S.A., Lublin, Poland). Next, microbial suspensions with an optical density of 0.5 McFarland standard scale (in sterile 0.85% NaCl) were prepared. In turn, the tested compounds were initially diluted at 50 mg/mL in dimethyl sulfoxide (DMSO) and the broth microdilution method was used to assess their minimum inhibitory concentrations (MICs). For these studies, selective broth Mueller-Hinton (MH) (BioMaxima S.A., Lublin, Poland) and RPMI (Roswell Park Memorial Institute) 1640 with MOPS (3-(N-Morpholino)propanesulfonic acid) (Sigma-Aldrich Chemicals, St. Louis, MO, USA) were used for bacteria and fungi, respectively. The antimicrobial effect of compounds WZ1–WZ4 was determined in the concentration range from 2000 to 0.98 µg/mL.
(§3) Then, the microbial suspensions were introduced into each well of the microplate and incubated for 18–24 h at 35 °C. […] The reference drugs ciprofloxacin or vancomycin (against bacteria) and nystatin (against fungi) (Sigma-Aldrich Chemicals, St. Louis, MO, USA) were also used. Next, the values of the minimum bactericidal concentration (MBC) and minimum fungicidal concentration (MFC) of WZ1–WZ4 were assessed. For this purpose, the cultures from each MIC determination well were transferred to a suitable solid medium and incubated under appropriate conditions. The lowest concentrations of compounds without microbial growth were read as MBC or MFC. The studies were performed in triplicate and representative data were gathered.
(§4) In turn, the MBC/MIC or MFC/MIC ratios were used to assess bactericidal/fungicidal (MBC/MIC or MFC/MIC ≤ 4) and bacteriostatic/fungistatic (MBC/MIC or MFC/MIC > 4) effect of these compounds [93].

[1] = test system: Staphylococcus aureus ATCC 43300; experiment: Broth microdilution antimicrobial activity; type: cell-based; conditions: for MBC / MIC: ATCC43300; for MBC / MIC / MBC/MIC: Staphylococcus aureus ATCC 43300
Description: as §1, §2, §3, §4

[2] = test system: Salmonella Typhimurium ATCC 14028; experiment: Broth microdilution antimicrobial activity; type: cell-based; conditions: for MBC / MIC: Salmonella enterica
Description: as §1, §2, §3, §4

[3] = test system: Bacillus subtilis ATCC 6633; experiment: Broth microdilution antimicrobial activity; type: cell-based; conditions: for MBC / MIC: ATCC6633
Description: as §1, §2, §3, §4

[4] = test system: Pseudomonas aeruginosa ATCC 9027; experiment: Broth microdilution antimicrobial activity; type: cell-based; conditions: for MBC / MIC: ATCC9027
Description: as §1, §2, §3, §4

[5] = test system: Micrococcus luteus ATCC 10240; experiment: Broth microdilution antimicrobial activity; type: cell-based; conditions: for MBC / MIC: ATCC10240
Description: as §1, §2, §3, §4

in vitro = type: cell-based, sheep; conditions: sheep
Description: The toxicity of WZ1–WZ4 compounds towards red blood cells was tested using the erythrocyte lysis assay (ELA). Erythrocytes from fresh sheep blood (BioMaxima S.A., Poland) were centrifuged and washed with 0.85% NaCl. Next, 100 μL of a 2% suspension of red blood cells in physiological saline was added to the wells of microtiter plate. The double dilutions of compounds WZ1–WZ4 were prepared in the range of 2000–15.62 μg/mL. Appropriate controls were used to assess the hemolytic potential of tested compounds, i.e., 100% lysis of erythrocytes using 4% Triton X-100 (Pol-Aura, Różnowo, Poland) and 0% lysis in saline solution. Next, all sample plates were incubated (1 h at 37 °C), centrifuged for 10 min to separate unlysed red blood cells, and the supernatant was placed in a new plate. The ELA is a biological test by which the lytic response can be measured spectrophotometrically (at a wavelength of 450 nm) by the amount of hemoglobin released. The hemolysis percentage was calculated according to the following equation:(1) % Hemolysis = A450 of test compound treated sample − A450 of buffer treated sample/A450 of 4% Triton X100 treated samples − A450 of buffer treated sample × 100

Candida spp. = experiment: Broth microdilution, summary over reference Candida spp.; type: cell-based; conditions: for MFC: Candida, yeasts; for MFC/MIC: reference yeasts, except WZ4 towards C. parapsilosis
Description: as §1, §2, §3, §4

ALDH1A1 = ALDH1A1 concentration by ELISA in Du145 cells; type: cell-based, human
Description: The effect of compounds WZ1–WZ4 on ALDHA1 levels was investigated (Figure 10). The Du145, HepG2 and 769-P cell lines were treated with the calculated IC25 values for each compound.
Selected cell lines, viz HepG2, Du145 and 769-P, were seeded into 6-well plates and incubated for 24 h after seeding with compounds at a concentration equal to IC25. After a further 24 h or 48 h, cells were detached with trypsin and centrifuged. The resulting cell pellet was resuspended in 0.5 mL PBS. The samples were then sonicated, and protein was determined using the Bradford method (Bio-rad; Hercules, CA, USA). Samples were equilibrated to 10 mg/mL of protein, and ALDH1A1 was determined in the samples prepared in this way. ALDH1A1 determination was performed using an ELISA (SEE824Hu; Cloud Clone Corp., Katy, TX, USA), according to the manufacturer’s protocol.

[6] = almost all Gram-positive bacteria

Row | Compound | MBC [1] [µg/mL] | MIC [1] [µg/mL] | MBC/MIC [1] | MBC/MIC [2] | MBC [2] [µg/mL] | MIC [2] [µg/mL] | MBC/MIC [3] | MBC [3] [µg/mL] | MIC [3] [µg/mL] | MBC/MIC [4] | MBC [4] [µg/mL] | MIC [4] [µg/mL] | MBC/MIC [5] | MBC [5] [µg/mL] | MIC [5] [µg/mL] | hemolysis at 1 h, 15.62 μg/mL (in vitro) [%] | hemolysis at 1 h, 31.25 μg/mL (in vitro) [%] | hemolysis at 1 h, 62.5 μg/mL (in vitro) [%] | hemolysis at 1 h, 125 μg/mL (in vitro) [%] | hemolysis at 1 h, 250 μg/mL (in vitro) [%] | other results
1 | O=S(=O)(NNC(=S)NC1CCCCC1)c1ccccc1 [WZ1, 2-(Benzenesulfonyl)-N-Cyclohexylhydrazine-1-Carbothioamide] | > 2000 | 500 (≈ 1600 µM) | > 4 | > 1 | > 2000 | > 2000 | > 4 | > 2000 | 500 (≈ 1600 µM) | > 1 | > 2000 | > 2000 | > 4 | > 2000 | 500 (≈ 1600 µM) | 0 | 0 | 0 | 2.11 | 7.89 | MIC (Gram-positive bacteria; Enterococcus faecalis, Gram-positive bacteria except E. faecalis): 250 to 500 µg/mL (≈ 798 to 1600 µM); MIC (Gram-positive bacteria; [6]): 62.5 to 500 µg/mL (≈ 199 to 1600 µM); share of reference Gram-positive strains with moderate activity (Gram-positive bacteria): 87.5%; share of reference Gram-positive strains with no activity (Gram-positive bacteria): 12.5%; hemolysis at 1 h, 500 μg/mL (in vitro): 14.2%; hemolysis at 1 h, 1000 μg/mL (in vitro): 18.4%; hemolysis at 1 h, 2000 μg/mL (in vitro): 34.7%; anticandidal bioactivity class (Candida spp.; reference Candida spp.): no anticandidal bioactivity
2 | CCCCNC(=S)NNS(=O)(=O)c1ccccc1 [WZ2, 2-(Benzenesulfonyl)-N-Butylhydrazine-1-Carbothioamide] | > 2000 | 2000 (≈ 6960 µM) | > 1 | > 1 | > 2000 | > 2000 | > 2 | > 2000 | 1000 (≈ 3480 µM) | > 1 | > 2000 | > 2000 | 2 | 2000 (≈ 6960 µM) | 1000 (≈ 3480 µM) | 0 | 0 | 0 | 3.15 | 8.95 | share of reference Gram-positive strains with mild activity (Gram-positive bacteria): 62.5%; MIC (Gram-positive bacteria; most Gram-positive bacteria): 1000 µg/mL (≈ 3480 µM); share of reference Gram-positive strains with no activity (Gram-positive bacteria): 37.5%; bioactivity class ([1]; S. aureus ATCC 43300): no bioactivity (no bioactivity (MIC > 1000 µg/mL)); hemolysis at 1 h, 500 μg/mL (in vitro): 19.5%; hemolysis at 1 h, 1000 μg/mL (in vitro): 27.9%; hemolysis at 1 h, 2000 μg/mL (in vitro): 36.8%; ALDH1A1 concentration compared to control (ALDH1A1; compound at IC25, 24 h): increased; ALDH1A1 concentration compared to control (ALDH1A1; compound at IC25, 48 h): decrease; also recorded: significantly reduced; anticandidal bioactivity class (Candida spp.; reference Candida spp.): no anticandidal bioactivity
3 | CCCCCCNC(=S)NNS(=O)(=O)c1ccccc1 [WZ3, 2-(Benzenesulfonyl)-N-Hexylhydrazine-1-Carbothioamide] | 500 (≈ 1580 µM) | 250 (≈ 792 µM) | 2 | > 2 | > 2000 | 1000 (≈ 3170 µM) | 4 | 500 (≈ 1580 µM) | 125 (≈ 396 µM) | 1 | 1000 (≈ 3170 µM) | 1000 (≈ 3170 µM) | 2 | 500 (≈ 1580 µM) | 250 (≈ 792 µM) | 0 | 0 | 0 | 1.14 | 11.4 | MIC (Gram-positive bacteria; Bacillus subtilis, remaining Gram-positive microorganisms (other than B. subtilis)): 250 to 500 µg/mL (≈ 792 to 1580 µM); MIC (Gram-positive bacteria; [6]): 62.5 to 500 µg/mL (≈ 198 to 1580 µM); share of reference Gram-positive strains with good activity (Gram-positive bacteria): 12.5%; share of reference Gram-positive strains with moderate activity (Gram-positive bacteria): 87.5%; MBC/MIC ratio (Gram-positive bacteria; most Gram-positive bacteria): 1–4; hemolysis at 1 h, 500 μg/mL (in vitro): 18.2%; hemolysis at 1 h, 1000 μg/mL (in vitro): 43.2%; hemolysis at 1 h, 2000 μg/mL (in vitro): 85.8%; ALDH1A1 concentration compared to control (ALDH1A1; compound at IC25, 48 h): decrease; also recorded: significantly reduced; MIC (Candida spp.; C. albicans and C. krusei): 250 to 500 µg/mL (≈ 792 to 1580 µM); MFC (Candida spp.): 500 to 2000 µg/mL (≈ 1580 to 6340 µM); MIC (Candida spp.; reference Candida spp.): 125 to 2000 µg/mL (≈ 396 to 6340 µM); MFC/MIC (Candida spp.): 1–4
4 | CNC(=S)NNS(=O)(=O)c1ccccc1 [WZ4, 2-(Benzenesulfonyl)-N-Methylhydrazine-1-Carbothioamide] | 2000 (≈ 8150 µM) | 500 (≈ 2040 µM) | 4 | > 1 | > 2000 | > 2000 | 16 | 2000 (≈ 8150 µM) | 125 (≈ 510 µM) | > 1 | > 2000 | > 2000 | 2 | 500 (≈ 2040 µM) | 250 (≈ 1020 µM) | 0 | 0 | 0 | 3.16 | 15.8 | MIC (Gram-positive bacteria; Staphylococcus aureus ATCC 43300, Staphylococcus aureus ATCC 25923 and Micrococcus luteus): 250 to 500 µg/mL (≈ 1020 to 2040 µM); MIC (Gram-positive bacteria; Staphylococcus epidermidis, Bacillus subtilis and Bacillus cereus): 62.5 to 125 µg/mL (≈ 255 to 510 µM); MIC (Gram-positive bacteria; [6]): 62.5 to 500 µg/mL (≈ 255 to 2040 µM); share of reference Gram-positive strains with good activity (Gram-positive bacteria): 37.5%; share of reference Gram-positive strains with mild activity (Gram-positive bacteria): 25%; share of reference Gram-positive strains with moderate activity (Gram-positive bacteria): 37.5%; MBC/MIC ratio (Gram-positive bacteria; most Gram-positive bacteria): 1–4; hemolysis at 1 h, 500 μg/mL (in vitro): 45.3%; hemolysis at 1 h, 1000 μg/mL (in vitro): 88.4%; hemolysis at 1 h, 2000 μg/mL (in vitro): 100%; ALDH1A1 concentration compared to control (ALDH1A1; compound at IC25, 24 h): decrease; ALDH1A1 concentration compared to control (ALDH1A1; compound at IC25, 48 h): decrease; also recorded: significantly reduced; MIC (Candida spp.; C. albicans and C. krusei): 250 to 500 µg/mL (≈ 1020 to 2040 µM); MFC (Candida spp.): 500 to 2000 µg/mL (≈ 2040 to 8150 µM); MIC (Candida spp.; reference Candida spp.): 125 to 2000 µg/mL (≈ 510 to 8150 µM); MFC/MIC (Candida spp.): 1–4

From publication PMC10747733, “N-Substituted 2-(Benzenosulfonyl)-1-Carbotioamide Derivatives Exert Antimicrobial and Cytotoxic Effects via Aldehyde Dehydrogenase Pathway: Synthesis, In Silico and In Vitro Studies” (Pharmaceuticals, 2023)
